According to US9416115B2, “Fused heterocyclic compounds as ion channel modulators” (Gilead Sciences, Inc., priority 2013, dated 2016):
Read-outs that look alike come from different tables or passages of the source.

How the values were obtained:
[1] = biological target: T1, wild-type human cardiac sodium channel, hNav1.5 (Homo sapiens, UniProt Q14524); assay: Late INa screening assay (QPatch whole cell patch clamp, Tefluthrin-induced late current); assay type: cell-based; conditions: 1 uM; HEK293 hNav1.5; percent block of late INa
Procedure, shortened: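 HEK293 cells stably expressing hNav1.5 without beta subunits were whole-cell patch clamped at 23-25 °C, stepping from −120 to −20 mV for 250 ms at 0.1 Hz. Late current (240–265 ms) was induced with 10 μM Tefluthrin, and compounds were added typically at 0.3 or 1 μM. Percent block was taken against 0 Na baseline with rundown correction.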

[2] = biological target: T1, wild-type human cardiac sodium channel, hNav1.5; assay: Peak INa screening assay (tonic block and use-dependent block); assay type: cell-based
Procedure, shortened: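 Whole-cell automated patch clamp, 23-25° C, on hNav1.5 alpha-only HEK293 cells with Na+ lowered to 40 mM by choline. Block measured after two additions of 1 or 3 μM compound and 200 s wait: tonic at 0.1 Hz, use-dependent at 50th pulse (−20 mV, 20 ms, 3 Hz) from −100 mV, relative to drug-free, rundown corrected.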

[3] = tonic block of Peak INa, 0.1 Hz, holding -100 mV, read-out: Peak TB 3 uM
[4] = use-dependent block of Peak INa, 3 Hz, pulse 50, read-out: Peak UDB 3 Hz 3 uM

T1 sequence (Q14524 whole entry): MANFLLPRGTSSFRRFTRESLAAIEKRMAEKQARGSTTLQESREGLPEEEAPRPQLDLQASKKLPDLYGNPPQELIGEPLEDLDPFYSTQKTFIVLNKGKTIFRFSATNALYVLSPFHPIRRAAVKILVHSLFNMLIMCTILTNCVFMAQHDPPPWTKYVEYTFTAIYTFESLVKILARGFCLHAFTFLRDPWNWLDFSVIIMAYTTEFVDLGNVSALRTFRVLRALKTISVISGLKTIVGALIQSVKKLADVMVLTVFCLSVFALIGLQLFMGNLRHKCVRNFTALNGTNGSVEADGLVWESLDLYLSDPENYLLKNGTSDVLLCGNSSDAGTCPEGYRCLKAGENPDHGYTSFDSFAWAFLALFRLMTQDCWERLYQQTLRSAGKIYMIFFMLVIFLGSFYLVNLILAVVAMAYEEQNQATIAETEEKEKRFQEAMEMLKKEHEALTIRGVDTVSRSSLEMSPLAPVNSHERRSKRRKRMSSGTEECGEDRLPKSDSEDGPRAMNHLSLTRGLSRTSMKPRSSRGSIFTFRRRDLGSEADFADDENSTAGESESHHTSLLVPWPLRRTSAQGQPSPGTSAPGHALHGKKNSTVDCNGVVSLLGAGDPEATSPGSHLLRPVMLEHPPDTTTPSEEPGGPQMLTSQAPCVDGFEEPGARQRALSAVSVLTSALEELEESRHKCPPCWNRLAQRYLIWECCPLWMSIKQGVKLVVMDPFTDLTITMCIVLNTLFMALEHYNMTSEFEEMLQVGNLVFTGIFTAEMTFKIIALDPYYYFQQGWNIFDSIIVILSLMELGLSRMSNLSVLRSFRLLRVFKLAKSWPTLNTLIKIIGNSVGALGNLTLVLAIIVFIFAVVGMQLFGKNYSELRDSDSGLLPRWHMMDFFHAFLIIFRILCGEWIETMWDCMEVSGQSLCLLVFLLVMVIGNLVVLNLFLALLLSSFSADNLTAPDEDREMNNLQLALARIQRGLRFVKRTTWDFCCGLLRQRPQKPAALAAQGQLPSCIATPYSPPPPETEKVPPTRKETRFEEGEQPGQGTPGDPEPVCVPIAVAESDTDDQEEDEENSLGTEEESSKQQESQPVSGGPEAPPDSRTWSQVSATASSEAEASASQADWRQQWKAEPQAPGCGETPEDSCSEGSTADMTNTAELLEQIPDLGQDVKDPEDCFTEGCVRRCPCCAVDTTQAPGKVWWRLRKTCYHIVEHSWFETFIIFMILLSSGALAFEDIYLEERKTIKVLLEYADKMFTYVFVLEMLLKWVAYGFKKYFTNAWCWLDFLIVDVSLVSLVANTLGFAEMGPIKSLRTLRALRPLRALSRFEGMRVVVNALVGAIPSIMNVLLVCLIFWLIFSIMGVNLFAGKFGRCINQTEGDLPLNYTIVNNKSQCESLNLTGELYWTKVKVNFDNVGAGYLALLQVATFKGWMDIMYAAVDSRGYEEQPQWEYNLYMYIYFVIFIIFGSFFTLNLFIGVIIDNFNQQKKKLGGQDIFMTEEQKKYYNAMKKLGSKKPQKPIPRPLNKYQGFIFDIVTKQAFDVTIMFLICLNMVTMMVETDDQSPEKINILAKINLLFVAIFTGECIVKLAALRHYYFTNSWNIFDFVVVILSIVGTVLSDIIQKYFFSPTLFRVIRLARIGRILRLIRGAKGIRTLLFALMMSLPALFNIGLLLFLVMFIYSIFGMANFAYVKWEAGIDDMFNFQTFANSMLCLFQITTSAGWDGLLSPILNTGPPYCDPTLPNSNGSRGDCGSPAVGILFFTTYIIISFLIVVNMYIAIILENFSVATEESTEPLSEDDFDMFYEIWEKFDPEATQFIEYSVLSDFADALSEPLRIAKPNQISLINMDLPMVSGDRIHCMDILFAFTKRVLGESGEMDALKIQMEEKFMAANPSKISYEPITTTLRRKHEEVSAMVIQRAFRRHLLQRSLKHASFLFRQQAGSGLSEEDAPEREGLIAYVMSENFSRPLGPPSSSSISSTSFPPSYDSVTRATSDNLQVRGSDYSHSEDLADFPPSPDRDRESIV

## Cc1cc(-c2cc(C)c3onc(OCc4ncccn4)c3c2)ccc1OC(F)(F)F [Example 18, 7-methyl-5-(3-methyl-4-(trifluoromethoxy)phenyl)-3-(pyrimidin-2-ylmethoxy)benzo[d]isoxazole]
[1]
  inhibition at 1 µM: 38.2%
[2]; [3]
  inhibition at 3 µM: 27.7%
[2]; [4]
  inhibition at 3 µM: 5.2%

## Cc1cc(-c2ccc(OC(F)(F)F)cc2)cc2c(OCCn3cncn3)noc12 [Example 89, 3-(2-(1H-1,2,4-triazol-1-yl)ethoxy)-7-methyl-5-(4-(trifluoromethoxy)phenyl)benzo[d]isoxazole]
[1]
  inhibition at 1 µM: 33.2%
[2]; [3]
  inhibition at 3 µM: 5.7%
[2]; [4]
  inhibition at 3 µM: < 5%

## CC(Oc1noc2ccc(-c3ccc(OC(F)(F)F)cc3)cc12)c1ccccn1 (stereo not shown) [Example 98, 3-(1-(pyridin-2-yl)ethoxy)-5-(4-(trifluoromethoxy)phenyl)benzo[d]isoxazole]
[1]
  inhibition at 1 µM: 38.7%
[2]; [3]
  inhibition at 3 µM: 28.7%
[2]; [4]
  inhibition at 3 µM: < 5%

## Cc1cccc(COc2noc3ccc(-c4ccc(OC(F)(F)F)cc4)cc23)n1 [Example 95, 3-((6-methylpyridin-2-yl)methoxy)-5-(4-(trifluoromethoxy)phenyl)benzo[d]isoxazole]
[1]
  inhibition at 1 µM: 51.7%
[2]; [3]
  inhibition at 3 µM: 6.4%
[2]; [4]
  inhibition at 3 µM: < 5%

## Cn1cncc1COc1noc2ccc(-c3ccc(OC(F)(F)F)cc3)cc12 [Example 50, 3-((1-methyl-1H-imidazol-5-yl)methoxy)-5-(4-(trifluoromethoxy)phenyl)benzo[d]isoxazole]
[1]
  inhibition at 1 µM: 32.5%
[2]; [4]
  inhibition at 3 µM: < 5%

## COc1cc(-c2ccc(OC(F)(F)F)c(C)c2)cc2c(OCc3ncccn3)noc12 [Example 23, 7-methoxy-5-(3-methyl-4-(trifluoromethoxy)phenyl)-3-(pyrimidin-2-ylmethoxy)benzo[d]isoxazole]
[1]
  inhibition at 1 µM: 45.3%
[2]; [4]
  inhibition at 3 µM: < 5%

## FC(F)(F)Oc1ccc(-c2ccc3onc(OCc4cn5ccccc5n4)c3c2)cc1 [Example 51, 3-(imidazo[1,2-a]pyridin-2-ylmethoxy)-5-(4-(trifluoromethoxy)phenyl)benzo[d]isoxazole]
[1]
  inhibition at 1 µM: 38.8%
[2]; [3]
  inhibition at 3 µM: 12.3%
[2]; [4]
  inhibition at 3 µM: 7.7%

## Fc1cc2onc(OCc3ncccn3)c2cc1-c1ccc2c(c1)OC(F)(F)O2 [Example 35, 5-(2,2-difluorobenzo[d][1,3]dioxol-5-yl)-6-fluoro-3-(pyrimidin-2-ylmethoxy)benzo[d]isoxazole]
[1]
  inhibition at 1 µM: 33.6%
[2]; [3]
  inhibition at 3 µM: 17.4%
[2]; [4]
  inhibition at 3 µM: < 5%

## O=C1CCCN1CCOc1noc2c(F)cc(-c3ccc(OC(F)(F)F)cc3)cc12 [Example 80, 1-(2-((7-fluoro-5-(4-(trifluoromethoxy)phenyl)benzo[d]isoxazol-3-yl)oxy)ethyl)pyrrolidin-2-one]
[1]
  inhibition at 1 µM: 35.6%
[2]; [3]
  inhibition at 3 µM: 17.3%
[2]; [4]
  inhibition at 3 µM: 13.7%

## OCC1(COc2noc3ccc(-c4ccc(OC(F)(F)F)cc4)cc23)COC1 [Example 97, (3-(((5-(4-(trifluoromethoxy)phenyl)benzo[d]isoxazol-3-yl)oxy)methyl)oxetan-3-yl)methanol]
[1]
  inhibition at 1 µM: 39%
[2]; [3]
  inhibition at 3 µM: 26.5%
[2]; [4]
  inhibition at 3 µM: < 5%

## COc1cc(-c2ccc(C(F)(F)F)cc2F)cc2c(OCc3ncccn3)noc12 [Example 24, 5-(2-fluoro-4-(trifluoromethyl)phenyl)-7-methoxy-3-(pyrimidin-2-ylmethoxy)benzo[d]isoxazole]
[1]
  inhibition at 1 µM: 36%
[2]; [3]
  inhibition at 3 µM: 10%
[2]; [4]
  inhibition at 3 µM: < 5%

## Fc1cc(C(F)(F)F)ccc1-c1cc2c(OCc3ncccn3)noc2cc1F [Example 33, 6-fluoro-5-(2-fluoro-4-(trifluoromethyl)phenyl)-3-(pyrimidin-2-ylmethoxy)benzo[d]isoxazole]
[1]
  inhibition at 1 µM: 35.5%
[2]; [3]
  inhibition at 3 µM: 20.9%
[2]; [4]
  inhibition at 3 µM: 5.1%

## CC(C)n1ccnc1COc1noc2ccc(-c3ccc(OC(F)(F)F)cc3)cc12 [Example 48, 3-((1-isopropyl-1H-imidazol-2-yl)methoxy)-5-(4-(trifluoromethoxy)phenyl)benzo[d]isoxazole]
[1]
  inhibition at 1 µM: 51.2%
[2]; [3]
  inhibition at 3 µM: 9.1%
[2]; [4]
  inhibition at 3 µM: 5.7%

## CCn1cncc1COc1noc2ccc(-c3ccc(OC(F)(F)F)cc3)cc12 [Example 49, 3-((1-ethyl-1H-imidazol-5-yl)methoxy)-5-(4-(trifluoromethoxy)phenyl)benzo[d]isoxazole]
[1]
  inhibition at 1 µM: 39.6%
[2]; [3]
  inhibition at 3 µM: 16.9%
[2]; [4]
  inhibition at 3 µM: < 5%

## FC(F)(F)Oc1ccc(-c2ccc3onc(OCc4nccn4-c4ccccc4)c3c2)cc1 [Example 64, 3-((1-phenyl-1H-imidazol-2-yl)methoxy)-5-(4-(trifluoromethoxy)phenyl)benzo[d]isoxazole]
[1]
  inhibition at 1 µM: 30.7%
[2]; [3]
  inhibition at 3 µM: 10.1%
[2]; [4]
  inhibition at 3 µM: < 5%

## FC1(F)Oc2ccc(-c3ccc4onc(OCc5ncccn5)c4c3)cc2O1 [Example 30, 5-(2,2-difluorobenzo[d][1,3]dioxol-5-yl)-3-(pyrimidin-2-ylmethoxy)benzo[d]isoxazole]
[1]
  inhibition at 1 µM: 42.5%
[2]; [3]
  inhibition at 3 µM: 15.2%
[2]; [4]
  inhibition at 3 µM: < 5%

## Fc1cc2onc(OCc3ncccn3)c2cc1-c1ccc(OC(F)(F)F)cc1 [Example 31, 6-fluoro-3-(pyrimidin-2-ylmethoxy)-5-(4-(trifluoromethoxy)phenyl)benzo[d]isoxazole]
[1]
  inhibition at 1 µM: 43.9%
[2]; [3]
  inhibition at 3 µM: 18.5%
[2]; [4]
  inhibition at 3 µM: < 5%

## COc1ccnc(COc2noc3ccc(-c4ccc(OC(F)(F)F)cc4)cc23)c1 [Example 81, 3-((4-methoxypyridin-2-yl)methoxy)-5-(4-(trifluoromethoxy)phenyl)benzo[d]isoxazole]
[1]
  inhibition at 1 µM: 33.7%
[2]; [3]
  inhibition at 3 µM: 23.5%
[2]; [4]
  inhibition at 3 µM: < 5%

## Cc1cccnc1COc1noc2ccc(-c3ccc(OC(F)(F)F)cc3)cc12 [Example 93, 3-((3-methylpyridin-2-yl)methoxy)-5-(4-(trifluoromethoxy)phenyl)benzo[d]isoxazole]
[1]
  inhibition at 1 µM: 45.1%
[2]; [3]
  inhibition at 3 µM: 14.9%
[2]; [4]
  inhibition at 3 µM: < 5%

## Fc1cc(-c2ccc(OC(F)(F)F)cc2)cc2c(OCc3ncccn3)noc12 [Example 17, 7-fluoro-3-(pyrimidin-2-ylmethoxy)-5-(4-(trifluoromethoxy)phenyl)benzo[d]isoxazole]
[1]
  inhibition at 1 µM: 45.9%
[2]; [3]
  inhibition at 3 µM: 28.9%
[2]; [4]
  inhibition at 3 µM: < 5%

## Cc1cc(-c2ccc(OC(F)(F)F)cc2)cc2c(OCc3ncco3)noc12 [Example 91, 7-methyl-3-(oxazol-2-ylmethoxy)-5-(4-(trifluoromethoxy)phenyl)benzo[d]isoxazole]
[1]
  inhibition at 1 µM: 53%
[2]; [3]
  inhibition at 3 µM: 33%
[2]; [4]
  inhibition at 3 µM: < 5%

## Cc1nc(C)n(CCOc2noc3ccc(-c4ccc(OC(F)(F)F)cc4)cc23)n1 [Example 76, 3-(2-(3,5-dimethyl-1H-1,2,4-triazol-1-yl)ethoxy)-5-(4-(trifluoromethoxy)phenyl)benzo[d]isoxazole]
[1]
  inhibition at 1 µM: 55.2%
[2]; [3]
  inhibition at 3 µM: 49.9%
[2]; [4]
  inhibition at 3 µM: < 5%

## Cc1cc(-c2cc3c(OCc4ncccn4)noc3cc2C)ccc1OC(F)(F)F [Example 27, 6-methyl-5-(3-methyl-4-(trifluoromethoxy)phenyl)-3-(pyrimidin-2-ylmethoxy)benzo[d]isoxazole]
[1]
  inhibition at 1 µM: 35.1%
[2]; [3]
  inhibition at 3 µM: 20.8%
[2]; [4]
  inhibition at 3 µM: < 5%

## Cc1cc2onc(OCc3ncccn3)c2cc1-c1ccc(OC(F)(F)F)cc1 [Example 26, 6-methyl-3-(pyrimidin-2-ylmethoxy)-5-(4-(trifluoromethoxy)phenyl)benzo[d]isoxazole]
[1]
  inhibition at 1 µM: 49.6%
[2]; [3]
  inhibition at 3 µM: 27.8%
[2]; [4]
  inhibition at 3 µM: < 5%

## Cn1cc(COc2noc3ccc(-c4ccc(OC(F)(F)F)cc4)cc23)nn1 [Example 44]
[1]
  inhibition at 1 µM: 48.2%
[2]; [3]
  inhibition at 3 µM: 29.9%
[2]; [4]
  inhibition at 3 µM: 10.4%

## FC(F)(F)Oc1ccc(-c2ccc3onc(OCCN4CCOCC4)c3c2)cc1 [Example 78, 3-(2-morpholinoethoxy)-5-(4-(trifluoromethoxy)phenyl)benzo[d]isoxazole]
[1]
  inhibition at 1 µM: 47.1%
[2]; [3]
  inhibition at 3 µM: 38.7%
[2]; [4]
  inhibition at 3 µM: 19.5%

## Cc1cc(OC(F)(F)F)ccc1-c1cc2c(OCc3ncccn3)noc2cc1C [Example 29, 6-methyl-5-(2-methyl-4-(trifluoromethoxy)phenyl)-3-(pyrimidin-2-ylmethoxy)benzo[d]isoxazole]
[1]
  inhibition at 1 µM: 46.4%
[2]; [3]
  inhibition at 3 µM: 8.1%
[2]; [4]
  inhibition at 3 µM: < 5%

## FC(F)(F)COc1ccc(-c2ccc3onc(OCc4ncccn4)c3c2)cn1 [Example 21, 3-(pyrimidin-2-ylmethoxy)-5-(6-(2,2,2-trifluoroethoxy)pyridin-3-yl)benzo[d]isoxazole]
[1]
  inhibition at 1 µM: 48.8%
[2]; [3]
  inhibition at 3 µM: 13%
[2]; [4]
  inhibition at 3 µM: < 5%

## CC(COc1noc2ccc(-c3ccc(OC(F)(F)F)cc3)cc12)n1cncn1 (stereo not shown) [Example 77, 3-(2-(1H-1,2,4-triazol-1-yl)propoxy)-5-(4-(trifluoromethoxy)phenyl)benzo[d]isoxazole]
[1]
  inhibition at 1 µM: 49.2%
[2]; [3]
  inhibition at 3 µM: 34.6%
[2]; [4]
  inhibition at 3 µM: 8.3%

## COc1cc(-c2ccc(OC(F)(F)F)cc2C)cc2c(OCc3ncccn3)noc12 [Example 25, 7-methoxy-5-(2-methyl-4-(trifluoromethoxy)phenyl)-3-(pyrimidin-2-ylmethoxy)benzo[d]isoxazole]
[1]
  inhibition at 1 µM: 41.3%
[2]; [3]
  inhibition at 3 µM: 12%
[2]; [4]
  inhibition at 3 µM: < 5%
